# Laboratory results reported in patent US20130205416A1 (priority 2010, published 2013).
# Where “and” joins values, the source holds several entries; their conditions need not be identical. Equal values may be shown once. Square brackets hold non-standard residues; d marks the D form. Ends that are not written are not given here.
# How the values were obtained:
# A/WSN/33 H1N1 virus [1] = type: cell-based, Influenza A virus
# A/WSN/33 H1N1 virus [2] = type: cell-based, Influenza A virus; remark: listed apart in the source
# [3] = tested on: PR8/Eng09 H1N1 virus (A/England/195/09); type: cell-based, Influenza A virus
# [4] = tested on: PR8/Vic H3N2 virus (A/Victoria/3/75); type: cell-based, Influenza A virus
# [5] = mouse, in vivo
# [6] = tested on: H1N1 viruses (A/WSN/33 and A/England/195/09); details: for IC50: viruses (A/WSN/33 and A/England/195/09)
# A/WSN/33 influenza virus = tested on: A/WSN/33 influenza virus; set-up: species or system BALB/c mice; details: mouse
# [7] = tested on: PR8/Viet H5N1 virus (A/Vietnam/1194/04); type: cell-based, Influenza A virus
# [8] = tested on: H3N2 viruses (A/Udorn and A/Victoria/3/75); details: for IC50: viruses (A/Udorn and A/Victoria/3/75)
# [9] = tested on: attachment of A/WSN/33 (H1N1) virus to MDCK cells; type: cell-based, Influenza A virus
# [10] = target: recombinant Haemagglutinin (HA) (California 04/2009 H1N1 Influenza A) (Influenza A virus, UniProt C3W5S1); type: binding
# [11] = tested on: human parainfluenza virus; type: cell-based
# [12] = tested on: Semliki Forest virus (SFV); type: cell-based
# Chain of recombinant Haemagglutinin (HA) (California 04/2009 H1N1 Influenza A) (C3W5S1 entry or part of it, added parts left off): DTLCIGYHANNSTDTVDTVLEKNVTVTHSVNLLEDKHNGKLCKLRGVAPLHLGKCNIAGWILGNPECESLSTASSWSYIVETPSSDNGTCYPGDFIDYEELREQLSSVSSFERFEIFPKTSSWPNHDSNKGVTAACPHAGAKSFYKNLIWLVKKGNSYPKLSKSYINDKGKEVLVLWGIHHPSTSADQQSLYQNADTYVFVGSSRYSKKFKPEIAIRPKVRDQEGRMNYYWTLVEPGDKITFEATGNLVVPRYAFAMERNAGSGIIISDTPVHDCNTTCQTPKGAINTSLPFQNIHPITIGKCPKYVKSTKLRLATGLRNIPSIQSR
substance,measurement,setting,value
"RRKKWLVFFVIYFFR [FP4, RRKKWLVFFVIYFFR]",reduction in virus yield,A/WSN/33 H1N1 virus [1],99% and 50%
same,knockdown of plaque formation,A/WSN/33 H1N1 virus [2],100%
same,knockdown,[3],90%
same,knockdown,[4],97%
same,immunogenicity (serum IgG by ELISA),[5],neither FP2 nor FP4 peptides were immunogenic
same,agglutination end point,horse RBCs,6.25 µg/mL
same,IC50,[6],66 to 100 nM
same,agglutination end point,human RBCs,0.78 µg/mL
same,inhibition of lung viral titres in vivo,A/WSN/33 influenza virus,effective
same,clinical indications,A/WSN/33 influenza virus; in vivo,no clinical indications
same,survival of mice,A/WSN/33 influenza virus; in vivo,100%
same,knockdown,[7],complete knockdown
"WLVFFVIFYFFRRRKK [FP3, WLVFFVIFYFFRRRKK]",knockdown of plaque formation,A/WSN/33 H1N1 virus [2],100%
same,inhibition of H3N2 infection,[8],only weakly inhibit
same,IC50,[8],16000 nM
same,agglutination end point,horse RBCs,6.25 µg/mL
same,IC50,[6],66 to 100 nM
same,agglutination end point,human RBCs,0.78 µg/mL
same,inhibition of viral attachment,[9],completely inhibited
same,binding to HA,[10],can bind Influenza A HA
PEG300-RRKKWLVFFVIFYFFR [FP4-PEG],reduction in virus yield,A/WSN/33 H1N1 virus [1],68%
same,virus yield,A/WSN/33 H1N1 virus [1],No virus was detected
WLVFFVRRKK [FP8],anti-viral activity,A/WSN/33 H1N1 virus [2],substantial anti-viral activity
same,knockdown of plaque formation,A/WSN/33 H1N1 virus [2],94%
"FFVIFYRRKK [FP9, FFVIFYRRKK]",anti-viral activity,A/WSN/33 H1N1 virus [2],substantial anti-viral activity
same,knockdown of plaque formation,A/WSN/33 H1N1 virus [2],94%
same,inhibition of H3N2 infection,[8],to a lesser extent
same,inhibition of H1N1 infection,[6],very effective
same,IC50,[6],1500 nM
"IVWFYLFRFFVF [FP10, IVWFYLFRFFVF]",IC50,[8],72 nM
same,IC50,[6],< 1.48 nM
same,inhibition of lung viral titres in vivo,A/WSN/33 influenza virus,values similar to the control groups
"WLVFFVIAYFAR [FP2, WLVFFVIAYFAR]",IC50,[8],1.6 nM
same,IC50,[6],1.6 nM
RRKK-IFYFFR [FP7],inhibition of H3N2 infection,[8],failed to inhibit
same,inhibition of H1N1 infection,[6],failed to inhibit
WLVFFVIFYFFR [FP1],knockdown of plaque formation,A/WSN/33 H1N1 virus [2],94%
same,antiviral effects,[11],no antiviral effects
same,"antiviral activity in vivo (body weight, lung virus titre)",A/WSN/33 influenza virus,potent antiviral activity
same,antiviral effects,[12],no antiviral effects
FP1-D: FP1 prepared with D-amino acids (SEQ ID NO 20) ([dW][dL][dV][dF][dF][dV][dI][dF][dY][dF][dF][dR]),reduction in virus yield,A/WSN/33 H1N1 virus [1],85% and 68%
same,inhibition of H3N2 virus infection,[8],inhibit
same,inhibition of H1N1 virus infection,[6],inhibit
